In article PMC6067752, “Investigations on the mode of action of gephyronic acid, an inhibitor of eukaryotic protein translation from myxobacteria” (PLoS ONE, 2018):

Tests used:
[1] = target: T1, eukaryotic initiation factor 2 subunit alpha (eIF2α) (Homo sapiens, UniProt P05198); experiment: pull-down with streptavidin beads, western blot; type: biochemical; conditions: KB-3-1 cell lysate; native protein; 4 °C 1 h with compound; labelled compound; indirect binding evidence
T1 construct: gene EIF2S1; native endogenous protein in KB-3-1 cell lysate (M-PER), 36 kDa band; alpha subunit of the heterotrimeric eIF2 complex; detected by western blot

PC-3 = experiment: cells; set-up: species or system transformed mammalian cell lines; MTT assay (formazan absorbance at 595 nm), anti-proliferative activity on transformed cell lines; conditions: Homo sapiens, PC-3; read-out: Gephyronic acid IC50
MCF-7 = experiment: cells; set-up: species or system transformed mammalian cell lines; MTT assay (formazan absorbance at 595 nm), anti-proliferative activity on transformed cell lines; conditions: Homo sapiens, MCF7; read-out: Gephyronic acid IC50
A-549 = experiment: cells; set-up: species or system transformed mammalian cell lines; MTT assay (formazan absorbance at 595 nm), anti-proliferative activity on transformed cell lines; conditions: Homo sapiens, A549; read-out: Gephyronic acid IC50
KB-3-1 = experiment: cells; set-up: species or system transformed mammalian cell lines; MTT assay (formazan absorbance at 595 nm), anti-proliferative activity on transformed cell lines; conditions: Homo sapiens, KB 3-1; read-out: Gephyronic acid IC50
L-929 = experiment: cells; set-up: species or system transformed mammalian cell lines; MTT assay (formazan absorbance at 595 nm), anti-proliferative activity on transformed cell lines; conditions: Mus musculus, L929; read-out: Gephyronic acid IC50
[2] = target: T1, eukaryotic initiation factor 2 subunit alpha (eIF2α); experiment: DARTS (pronase protection, western blot); type: biochemical; conditions: KB-3-1 cell lysate; native protein; 2 h at room temperature with compound, pronase 30 min at 37 °C; indirect binding evidence

T1 sequence (P05198 whole entry): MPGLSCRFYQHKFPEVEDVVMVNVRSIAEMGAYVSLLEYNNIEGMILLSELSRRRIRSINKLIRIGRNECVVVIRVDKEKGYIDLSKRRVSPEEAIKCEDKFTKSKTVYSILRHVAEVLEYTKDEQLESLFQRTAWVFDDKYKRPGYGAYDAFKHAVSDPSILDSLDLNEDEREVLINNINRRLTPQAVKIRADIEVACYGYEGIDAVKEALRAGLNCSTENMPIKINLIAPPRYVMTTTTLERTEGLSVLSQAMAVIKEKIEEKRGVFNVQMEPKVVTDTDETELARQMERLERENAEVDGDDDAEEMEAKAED

Row | SMILES | pull-down with streptavidin beads, western blot [1] | IC50 (PC-3) [nM] | IC50 (MCF-7) [nM] | IC50 (A-549) [nM] | IC50 (KB-3-1) [nM] | IC50 (L-929) [nM] | DARTS (pronase protection, western blot) [2]
1 | COC(=O)C[C@H](OC(=O)CCCC[C@@H]1SC[C@@H]2NC(=O)N[C@@H]21)[C@@H](C)[C@H](OC)C(C)(C)C(=O)[C@@H](C)C[C@H](C)[C@H](O)[C@]1(C)O[C@@H]1[C@@H](C)C=C(C)C [4b, biotinylated GA methyl ester 4b] | eIF2α was clearly present in preparations with biotinylated GA ester | – | – | – | – | – | –
2 | CO[C@@H]([C@H](C)[C@@H](O)CC(=O)O)C(C)(C)C(=O)[C@@H](C)C[C@H](C)[C@H](O)[C@@]1(C)O[C@@H]1[C@@H](C)C=C(C)C [compound 1, gephyronic acid] | – | 6 | 14 | 8 | 14 | 100 | GA binding protected the initiation factor eIF2α in a dose dependent manner.
